Data as given in patent EP1007549B1, “COMPOSITIONS AND METHODS FOR HIGHLY EFFICIENT TRANSFECTION” (Innovata Plc, priority 1997, dated 2006).

Legend:
human dendritic cells = assay: Transfection of human dendritic cells with pEGFP-N1, count of fluorescent positive cells; format: cell-based
[1] = Photon correlation spectroscopy (PCS) particle size of K6CL22-DNA complexes; format: physicochemical; conditions: 150mM NaCl, one hour at room temperature, DNA 40 µg/ml
Description: Complexes between K6CL22 and DNA were formed in the following way in a laminar flow hood: A stock solution of K6CL22 (typically 8-12mg/ml) was stored in water at -20°C. This was thawed and diluted to 4-400µg/ml in either 10mM HEPES pH7.4 (Hepes) or 10mM HEPES/150mM NaCl pH 7.4 (HBS). (It should be noted that these non-reducing conditions favor the formation of peptide dimers via disulfide bonding between peptides of cysteine residues in the peptide). A stock solution of pCMVβ plasmid DNA (typically 2-4mg/ml in either water or TE buffer) was diluted to 40 µg/ml in Hepes or HBS. Peptide (typically 0.4-1ml) was added to an equal volume of diluted DNA. Different target ratios of Peptide:DNA were achieved by varying the concentration of added peptide. Samples were immediately mixed by gently sucking up and down in a pipette tip and left to incubate at room temperature for a minimum of one hour or if required overnight at 4°C.
In Fig. 1, peptide and DNA were mixed as described above and incubated over night at 4°C. The final DNA concentration was 40µg/ml. […]
For PCS analysis the buffers used in the preparation of samples were filtered through 20nm filters. […] Samples were allowed to equilibrate to 25°C prior to measuring, and an average Zav was determined from a minimum of three measurements. […] Zav and intensity and volume distributions were determined using Malvern PC S software. […]

Cos7 cells = assay: Transfection of Cos cells with pCMVβ, Galacto-Light β-galactosidase assay; format: cell-based, monkey; conditions: chloroquine, 5 hours, triplicate
Description: The DNA and complex solutions were made as follows: • DNA solution: 100 µg/ml pCMVβ, 25 mM phosphate pH 7.4, 0.6 M NaCl. Complex solution: 100 µg/ml pCMVβ, 25 mM phosphate pH 7.4, 0.6 M NaCl, 200 µg/ml K6CL22. These solutions were incubated at room temperature for 1 hour and then 4°C overnight. Cos cells were seeded at 1×10^5 cells per well in 6 well plates (in DMEM, 10% Fetal calf serum (FCS)) 24 hours before incubation with complex or DNA.
The DNA and complex solutions were diluted into PEG diluent (10% PEG 8000, 25 mM phosphate pH 7.4, 37.5 mM NaCl) to a final DNA concentration of 20 µg/ml. Just prior to transfection the Cos cells were washed with PBS and 875 µl RATQ medium (RAT medium with 137.14 µM chloroquine) was added per well. 125 µl of diluted complex or DNA solution was then added per well and the cells were incubated at 37°C for 5 hours. […] 100 µl of Reaction buffer is added to each tube, the samples are incubated at room temperature for 60 mins and then analyzed using Light Emission Accelerator and a Barthoid lumat LB 9501 luminometer. The protein concentration of the cleared cell lysate was measured using the Bio-Rad DC protein assay kit (Bio-Rad). The results are then expressed as relative light units per mg of protein (Figure 7). […]

KLN 205 cells [2] = assay: Transfection of KLN 205 cells, luminescence and X-gal; format: cell-based, mouse; conditions: for % expressing cells / average light units: 120 µM chloroquine, 2 µg DNA/well; for average light units: charge ratio +2
KLN 205 cells [3] = assay: Uptake of YOYO-1 labelled DNA complexes by KLN 205 cells (FACScan); format: cell-based, mouse
Description: KLN 205 cells were plated at a density of 1.5×10^5 cells per well in 6 well plates one day prior to the addition of DNA. Plasmid DNA (pCMVgal) was labeled with the fluorescent dye: YOYO-1 (Molecular Probes, Eugene, OR) at a ratio of 1 dye molecule per 100 bp (i.e. 1.5 µl of a 10 µM YOYO-1 solution per µg of DNA). The DNA was diluted to 40 µg/ml with 10 mM HEPES, pH 7.3. […] The transfection complex solution was left for 1 hour at room temperature before it was applied to the cells in EMEM/120 µM chloroquine with or without FCS at a DNA concentration of 2 µg/well (i.e. 100 µl of complex added to 900 µl medium for one well). After 4 hours of incubation at 37°C the cells were washed twice with PBS and harvested with Trypsin/EDTA. The cell associated fluorescence was analyzed using a FACScan (Becton Dickinson).

HepG2 cells = assay: Transfection of HepG2 cells in the presence of serum; format: cell-based; conditions: 10% FCS, optimum charge ratio for each peptide, pCMVβ
Description: These transfection complexes were then tested for their comparative ability to transfect HepG2 cells in the presence of 10% FCS (Figure 32).

In the case of CC[C@H](C)[C@H](NC(=O)[C@H](CC(N)=O)NC(=O)[C@H](CS)NC(=O)[C@H](CCSC)NC(=O)[C@H](CCCNC(=N)N)NC(=O)[C@H](CCC(=O)O)NC(=O)[C@H](Cc1ccc(O)cc1)NC(=O)[C@H](C)NC(=O)[C@H](CO)NC(=O)[C@H](CCCNC(=N)N)NC(=O)[C@@H](NC(=O)[C@H](CCCCN)NC(=O)[C@H](CCCNC(=N)N)NC(=O)CNC(=O)[C@H](CC(N)=O)NC(=O)[C@H](CCC(=O)O)NC(=O)CNC(=O)[C@H](CCCNC(=N)N)NC(=O)[C@H](Cc1c[nH]c2ccccc12)NC(=O)[C@H](Cc1ccccc1)NC(=O)CNC(=O)[C@H](CC(C)C)NC(=O)[C@H](Cc1ccccc1)NC(=O)CNC(=O)CNC(=O)[C@H](CCCCN)NC(=O)[C@H](CCCCN)NC(=O)[C@H](CCCCN)NC(=O)[C@H](CCCCN)NC(=O)[C@H](CCCCN)NC(=O)[C@H](CCCCN)NC(=O)[C@H](CCCCN)NC(=O)[C@H](CCCCN)NC(=O)[C@H](CCCCN)NC(=O)[C@H](CCCCN)NC(=O)[C@H](CCCCN)NC(=O)[C@@H](N)CCCCN)[C@@H](C)O)C(=O)N[C@@H](CC(C)C)C(=O)N[C@@H](CCCCN)C(=O)NCC(=O)N[C@@H](CCCCN)C(=O)O [CL26], the “transfection efficiency, CL26-complexed versus CL22-complexed DNA” value (human dendritic cells; Figure 35, peptide/DNA ratio between 1 and 1.8) is reported as “higher efficiency” and the “transfection efficiency, CL26-complexed versus CL22-complexed DNA” value (human dendritic cells; Figures 33 and 34) is reported as “higher efficiency”.

With CC[C@H](C)[C@H](NC(=O)[C@H](CC(N)=O)NC(=O)[C@H](CS)NC(=O)[C@H](CCSC)NC(=O)[C@H](CCCNC(=N)N)NC(=O)[C@H](CCC(=O)O)NC(=O)[C@H](Cc1ccc(O)cc1)NC(=O)[C@H](C)NC(=O)[C@H](CO)NC(=O)[C@H](CCCNC(=N)N)NC(=O)[C@@H](NC(=O)[C@H](CCCCN)NC(=O)[C@H](CCCNC(=N)N)NC(=O)CNC(=O)[C@H](CC(N)=O)NC(=O)[C@H](CCC(=O)O)NC(=O)CNC(=O)[C@H](CCCNC(=N)N)NC(=O)[C@H](Cc1c[nH]c2ccccc12)NC(=O)[C@H](Cc1ccccc1)NC(=O)CNC(=O)[C@H](CC(C)C)NC(=O)[C@H](Cc1ccccc1)NC(=O)CNC(=O)CNC(=O)[C@H](CCCCN)NC(=O)[C@H](CCCCN)NC(=O)[C@H](CCCCN)NC(=O)[C@H](CCCCN)NC(=O)[C@H](CCCCN)NC(=O)[C@@H](N)CCCCN)[C@@H](C)O)C(=O)N[C@@H](CC(C)C)C(=O)N[C@@H](CCCCN)C(=O)NCC(=O)N[C@@H](CCCCN)C(=O)O [K6CL22 monomer] the “transfection of dendritic cells, monomer versus dimer” value (human dendritic cells; peptide/DNA ratio between 2.0 and 4.0) was “transfects dendritic cells poorly compared with CL22 dimer” and the “effect of FCS on transfection efficiency” value (human dendritic cells; presence of FCS compared to absence of FCS) was “greatly reduced”.

With CC[C@H](C)[C@H](NC(=O)[C@H](CC(N)=O)NC(=O)[C@H](CS)NC(=O)[C@H](CCSC)NC(=O)[C@H](CCCNC(=N)N)NC(=O)[C@H](CCC(=O)O)NC(=O)[C@H](Cc1ccc(O)cc1)NC(=O)[C@H](C)NC(=O)[C@H](CO)NC(=O)[C@H](CCCNC(=N)N)NC(=O)[C@@H](NC(=O)[C@H](CCCCN)NC(=O)[C@H](CCCNC(=N)N)NC(=O)CNC(=O)[C@H](CC(N)=O)NC(=O)[C@H](CCC(=O)O)NC(=O)CNC(=O)[C@H](CCCNC(=N)N)NC(=O)[C@H](Cc1c[nH]c2ccccc12)NC(=O)[C@H](Cc1ccccc1)NC(=O)CNC(=O)[C@H](CC(C)C)NC(=O)[C@H](Cc1ccccc1)NC(=O)CNC(=O)CNC(=O)[C@H](CCCCN)NC(=O)[C@H](CCCCN)NC(=O)[C@H](CCCCN)NC(=O)[C@H](CCCCN)NC(=O)[C@H](CCCCN)NC(=O)[C@@H](N)CCCCN)[C@@H](C)O)C(=O)N[C@@H](CC(C)C)C(=O)N[C@@H](CCCCN)C(=O)NCC(=O)N[C@@H](CCCCN)C(=O)O [K6CL22] the “size of large particles/aggregates of complex” value [1] was “approx. 1000 nm”, the “transfection of Cos cells (β-galactosidase, relative light units per mg of protein)” value (Cos7 cells) was “very efficient transfection” and the “transfection efficiency, CL22-complexed versus CL26-complexed DNA” value (human dendritic cells; Figure 35, peptide/DNA ratio between 2 and 2.6) was “greater”. For the same compound, the “gene expression compared to NBC32 complexed plasmid DNA” value (KLN 205 cells [2]) was “higher”, the “% expressing cells” value (KLN 205 cells [2]; absence of FCS) was 35% and the average light units (KLN 205 cells [2]; absence of FCS) was 3000 x 10^6 RLU. For the same compound, the “% expressing cells” value (KLN 205 cells [2]; presence of FCS) was 5%, the average light units (KLN 205 cells [2]; presence of FCS) was 77 x 10^6 RLU and the “uptake of complexed DNA compared to DNA complexed with a polylysine peptide” value (KLN 205 cells [3]; charge ratio +2, 120 µM chloroquine, 4 hours) was “taken up as efficiently”. The “uptake of complexed DNA compared to a polylysine peptide, presence of FCS” value (KLN 205 cells [3]; in the presence of FCS) was “less than that of a polylysine peptide” and the “transfection compared with polylysine peptides or a histone based peptide” value (HepG2 cells) was “greater”.
